“And” between values parts separate entries of the source, which are not always exact repeats. Equal entries are not always repeated.
Experiments:
Tubulin = Tubulin Data (Table 1); assay type: biochemical; details: ratio analog/paclitaxel for tubulin data
HCT116 = HCT116 activity (Table 1); assay type: cell-based; details: for IC50: HCT116 cells, unit inferred; for anal/PT (beside HCT116 and 116/VM46): ratio analog/paclitaxel in HCT116
116/VM46 = 116/VM46 activity, resistant line (Table 1); assay type: cell-based; details: for IC50: 116/VM46 cells, unit inferred; for R/S ratio: ratio 116/VM46 (resistant) to HCT116 (sensitive)

IC50 (HCT116) | IC50 (116/VM46) | Structure (SMILES) | anal/PT (beside Tubulin Data) (Tubulin) | R/S ratio (116/VM46) | anal/PT (beside HCT116 and 116/VM46) (HCT116)
2 nM | 40 nM | COc1cccc(C(=O)O[C@H]2[C@@H]3[C@]4(OC(=O)C5CC5)CO[C@@H]4C[C@H](O)[C@@]3(C)C(=O)[C@H](OC(C)=O)C3=C(C)[C@@H](OC(=O)[C@H](O)[C@@H](NC(=O)c4ccccc4)c4ccccc4)C[C@]2(O)C3(C)C)c1 [MC-134-45, 2-(m-methoxybz)-4-cyclopropylCO-PT] | 1.3 | 20 | –
6.7 nM and 4.4 nM | – | COC(=O)O[C@@]12CO[C@@H]1C[C@H](O)[C@@]1(C)C(=O)[C@H](OC(C)=O)C3=C(C)[C@@H](OC(=O)[C@H](O)[C@@H](NC(=O)c4ccccc4)c4ccccc4)C[C@@](O)([C@@H](OC(=O)c4cccc(OC)c4)[C@H]21)C3(C)C [MC-134-61, 2-(m-methoxybenzoyl)-4-MeOCO-PT] | 0.9 | 129 | –
2.1 nM | 44 nM | COC(=O)O[C@@]12CO[C@@H]1C[C@H](O)[C@@]1(C)C(=O)[C@H](OC(C)=O)C3=C(C)[C@@H](OC(=O)[C@H](O)[C@@H](NC(=O)c4ccccc4)c4ccccc4)C[C@@](O)([C@@H](OC(=O)c4cccc(C)c4)[C@H]21)C3(C)C [MC-134-68, 2-(m-methylbenzoyl)-4-MeOCO-PT] | 0.8 | 21 | –
– | 28 nM and < 16 nM | CC(=O)O[C@H]1C(=O)[C@@]2(C)[C@H]([C@H](OC(=O)c3cccc(N=[N+]=[N-])c3)[C@]3(O)C[C@H](OC(=O)[C@H](O)[C@@H](NC(=O)c4ccccc4)c4ccccc4)C(C)=C1C3(C)C)[C@]1(OC(=O)C3CC3)CO[C@@H]1C[C@@H]2O [MC-134-91, 2-m-azido-4-cyclopropylCO-PT] | 0.08 | 10.4 | –
1.7 nM and 1.1 nM | 30 nM and < 16 nM | CC(=O)O[C@H]1C(=O)[C@@]2(C)[C@H]([C@H](OC(=O)c3cccc(Cl)c3)[C@]3(O)C[C@H](OC(=O)[C@H](O)[C@@H](NC(=O)c4ccccc4)c4ccccc4)C(C)=C1C3(C)C)[C@]1(OC(=O)C3CC3)CO[C@@H]1C[C@@H]2O [MC-134-92, 2-m-chloro-4-cyclopropylCO-PT] | 0.06 | 18 | –
2.2 nM | 82 nM | COC(=O)OC12COC1CC(O)C1(C)C(=O)C(OC(C)=O)C3=C(C)C(OC(=O)C(O)C(NC(=O)c4ccccc4)c4ccccc4)CC(O)(C(OC(=O)c4cccc(Cl)c4)C21)C3(C)C (stereo not shown) [MC-134-100, 2-m-chloro-4-MeOCO-PT] | 0.4 | 37 | –
4.7 nM | 53.2 nM | COc1cccc(C(=O)O[C@H]2[C@@H]3[C@]4(OC(=S)SC)CO[C@@H]4C[C@H](O)[C@@]3(C)C(=O)[C@H](OC(C)=O)C3=C(C)[C@@H](OC(=O)[C@H](O)[C@@H](NC(=O)c4ccccc4)c4ccccc4)C[C@]2(O)C3(C)C)c1 [MC-134-229, 2-(m-methoxybenzoyl-4-xanthyl)PT] | 8.9 | 11.32 | 3.08
5.7 nM | 58.6 nM | CSC(=S)O[C@@]12CO[C@@H]1C[C@H](O)[C@@]1(C)C(=O)[C@H](OC(C)=O)C3=C(C)[C@@H](OC(=O)[C@H](O)[C@@H](NC(=O)c4ccccc4)c4ccccc4)C[C@@](O)([C@@H](OC(=O)c4cccc(Cl)c4)[C@H]21)C3(C)C [MC-134-238, 2-(m-chlorobenzoyl-4-xanthyl)PT] | 3.5 | 10.34 | 3.72
16.8 nM | 135 nM | CSC(=S)O[C@@]12CO[C@@H]1C[C@H](O)[C@@]1(C)C(=O)[C@H](OC(C)=O)C3=C(C)[C@@H](OC(=O)[C@H](O)[C@@H](NC(=O)c4ccccc4)c4ccccc4)C[C@@](O)([C@@H](OC(=O)c4cccc(N=[N+]=[N-])c4)[C@H]21)C3(C)C [MC-134-239, 2-(m-azidobenzoyl-4-xanthyl)PT] | 42 | 8.03 | 11.02
2.5 nM | 76.6 nM | CC(=O)OC1C(=O)C2(C)C(O)CC3OCC3(OC(=O)C3CC3)C2C(OC(=O)c2ccc(Cl)cc2Cl)C2(O)CC(OC(=O)C(O)C(NC(=O)c3ccccc3)c3ccccc3)C(C)=C1C2(C)C (stereo not shown) [MC-134-247, 2-(2,4-dichlorobz)-4-cyclopropylCO-PT] | 0.7 | 30.64 | 1.09
2.1 nM | 8.2 nM | CC(=O)OC1C(=O)C2(C)C(O)CC3OCC3(OC(=O)C3CC3)C2C(OC(=O)c2ccc(F)cc2F)C2(O)CC(OC(=O)C(O)C(NC(=O)c3ccccc3)c3ccccc3)C(C)=C1C2(C)C (stereo not shown) [MC-134-248, 2-(2,4-difluorobz)-4-cyclopropylCO-PT] | 0.2 | 3.86 | 1.03
1.8 nM | 45.1 nM | COc1ccc(OC)c(C(=O)O[C@H]2[C@@H]3[C@]4(OC(=O)C5CC5)CO[C@@H]4C[C@H](O)[C@@]3(C)C(=O)[C@H](OC(C)=O)C3=C(C)[C@@H](OC(=O)[C@H](O)[C@@H](NC(=O)c4ccccc4)c4ccccc4)C[C@]2(O)C3(C)C)c1 [MC-134-250, 2-(2,5-dimethoxybz)-4-cyclopropylCO-PT] | 0.5 | 25.06 | 0.78
2430 nM | 2460 nM | CC(=O)OC1C(=O)C2(C)C(O)CC3OCC3(OC(=O)c3cccc(Cl)c3)C2C(OC(=O)c2cccc(Cl)c2)C2(O)CC(OC(=O)C(O)C(NC(=O)c3ccccc3)c3ccccc3)C(C)=C1C2(C)C (stereo not shown) [MC-134-277, 2-(m-Cl-benzoyl)-4-(m-Cl-benzoyl)PT] | 144 | – | –

Structure (SMILES) | IC50 (HCT116) | IC50 (116/VM46) | anal/PT (beside Tubulin Data) (Tubulin) | R/S ratio (116/VM46) | anal/PT (beside HCT116 and 116/VM46) (HCT116)
CC(=O)O[C@H]1C(=O)[C@@]2(C)[C@H]([C@H](OC(=O)c3ccccc3)[C@]3(O)C[C@H](OC(=O)[C@H](O)[C@@H](NC(=O)c4ccccc4)c4ccccc4)C(C)=C1C3(C)C)[C@]1(OC(C)=O)CO[C@@H]1C[C@@H]2O [paclitaxel (PT), paclitaxel, reference compound] | 2 nM | 203 nM | 1 | – | –
